In the experiment the target is T1, Alpha-1B adrenergic receptor (Homo sapiens, UniProt P35368).
T1 sequence (P35368 whole entry): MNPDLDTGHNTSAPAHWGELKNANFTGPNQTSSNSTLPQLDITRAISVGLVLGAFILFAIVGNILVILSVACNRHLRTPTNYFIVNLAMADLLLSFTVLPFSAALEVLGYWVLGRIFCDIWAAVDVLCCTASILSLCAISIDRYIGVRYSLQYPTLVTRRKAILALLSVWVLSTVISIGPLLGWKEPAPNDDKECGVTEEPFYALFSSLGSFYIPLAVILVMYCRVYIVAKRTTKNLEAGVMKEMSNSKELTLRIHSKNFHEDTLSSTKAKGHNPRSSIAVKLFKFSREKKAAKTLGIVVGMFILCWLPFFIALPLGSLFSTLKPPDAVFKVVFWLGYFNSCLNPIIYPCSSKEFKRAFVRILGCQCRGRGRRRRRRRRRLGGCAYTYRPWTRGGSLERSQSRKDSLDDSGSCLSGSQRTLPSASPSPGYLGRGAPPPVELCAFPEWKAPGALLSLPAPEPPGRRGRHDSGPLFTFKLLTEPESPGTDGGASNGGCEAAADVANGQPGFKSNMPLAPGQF
Nature of the experiment: Binding affinity towards human Alpha-1B adrenergic receptor by the displacement of [3H]prazosin.
As a reminder, the Ki is the equilibrium dissociation constant of an inhibitor or competing ligand from its target. The low end stands for higher affinity, the high end for lower affinity. For the compound `CCC[C@H]1CCCCC1NC1=NCCO1` (stereo partly specified), the Ki amounted to 3.98 µM. This counts as single-digit micromolar.

`c1ccc2c(c1)CCCC2NC1=NCCCO1` (stereo unspecified) yielded a Ki of 6.76 µM.

In turn, `C1COC(N2CCOCC2)=N1` returned a Ki of 1000 µM.

Regarding `c1ccc2c(c1)CCCC2NC1=NCCO1` (stereo unspecified), affinity was put at a Ki of 2.45 µM.

Consider `C1CCCC(NC2=NCCO2)CC1`, for which the Ki worked out at 28.2 µM.

Regarding `C1COC(NC(C2CC2)C2CC2)=N1` [CHEBI:8862], the affinity corresponds to a Ki of 21.4 µM.

The values above are taken from BindingDB's records for doi:10.7270/Q2GQ70ZD (n/a, 1994).
